Here are results for two compounds from article PMC4132815, “Structure and Function of the Bacterial Heterodimeric ABC Transporter CydDC” (The Journal of Biological Chemistry, 2014).

Experiment [1] deals with T1, CydDC (C-His6-CydDC) (Escherichia coli, UniProt P23886+P29018, P29018:INS2NS).
T1 construct: gene cydD; full-length heterodimer (64 + 63 kDa); plasmid pHX100 in E. coli BL21
Put plainly: stimulation of ATPase activity (colorimetric Pi release). The conditions noted are these: peak 2 in 0.02% DDM; 5 mM compound; 2 mM ATP, 10 mM MgCl2, pH 7.5, 37 °C; activator. The experiment is classed as biochemical.

Experiment [2] concerns the target T1, CydDC (C-His6-CydDC). The experiment is described as above. The experiment is classed as biochemical.

With `N[C@@H](Cc1cnc[nH]1)C(=O)O` [L-histidine], the “% of basal ATPase activity at 5 mM” value at CydDC (C-His6-CydDC) [1] was “Significant changes in ATPase activity were invoked only with thiols and L-histidine”. `N[C@@H](CS)C(=O)O` [cysteine]: the EC50 (as a rule, the concentration that produces a half-maximal response) on CydDC (C-His6-CydDC) [2] came out at 26 ± 3 µM.
